Source: patent US8173695B2, “Kappa selective opioid receptor antagonist” (Eli Lilly and Company, priority 2008, dated 2012)
Like-named read-outs stand apart in the source and are kept apart here.

Experiments:
Format in all cases: in vivo
[1] = target: T1, kappa receptors (striatum) (Rattus norvegicus, UniProt P34975); assay: Opioid receptor occupancy (RO) in rat brain, tracer GR103545; conditions: 5.5 hrs following oral administration
T1 construct: dose-dependent level of kappa receptor occupancy in the striatum; from tissue; host or cells: striatum of living Sprague Dawley rats

mu receptors (striatum) = target: T2, mu receptors (striatum) (Rattus norvegicus, UniProt P33535); assay: Opioid receptor occupancy (RO) in rat brain, tracer naltrexone
T2 construct: from tissue; host or cells: striatum of living Sprague Dawley rats

[2] = Plasma exposure after oral dosing, LC/MS/MS; conditions: male, Sprague Dawley (Harlan), rat plasma, read-out: Plasma Levels
Procedure: Male Harlan Sprague Dawley rats are treated with the compound of Example 1A of the present invention using a 3% lactic acid/water oral formulation at doses of […], 0.3, 1, 3, 10 and 30 mg/kg. […] The increasing levels of kappa receptor occupancy are driven by roughly proportional increases in plasma and brain exposure of the compound of Example 1A of the present invention up to a dose of 30 mg/kg.
Plasma exposure of Example 1A of the present invention in the rat following administration is determined from plasma isolated from trunk blood collected at the time of tissue collection for receptor occupancy. Levels of the compound of Example 1A are detected by LC/MS/MS (API 4000, MDS Sciex) and quantified from a standard curve of Example 1A prepared in vehicle treated rat plasma.

P rats = assay: P rat progressive ratio responding for ethanol; conditions: 10 mg/kg p.o. 60 min prior to testing, p<0.05 versus vehicle
Procedure: This test assesses the motivation to work for access to ethanol in P rats following ethanol abstinence. This animal model simulates ethanol craving.
Female P rats (Indiana University Medical Center, Indianapolis, Ind., USA) are pair-housed in an environmentally controlled facility and maintained on a 12 h light/dark cycle (lights on at 0600 hours).
Compounds are solubilized in sterile water by the dropwise addition of 85% lactic acid, mixed freshly prior to use, and administered in a volume of 1 mL/kg. Unless otherwise stated, compounds are administered p.o. 60 min prior to the experimental session. Doses are assigned using a counterbalanced, within-subject design (n=8-11 per experiment).
In order to reduce novelty-induced avoidance of ethanol (EtOH), the water bottle on the homecage is replaced with a bottle containing 15% EtOH (v/v; Ancare, Bellmore, N.Y.) for two days prior to operant training. Throughout the rest of the experiment, rats are allowed ad libitum access to water and standard laboratory chow in the homecage.
Daily 60-min sessions are conducted in standard rat operant chambers, housed within sound-attenuating chambers (MED Associates, Inc., St. Albans, Vt., USA). The 0.5 cm diameter stainless steel bars of the floor grid of the operant chambers are positioned approximately 1.5 cm apart. Two retractable operant levers in each operant chamber are located approximately 15 cm above the grid floor and 13 cm apart. A recessed trough is located in the space between the levers, through which a dipper cup (0.1 mL capacity) is raised to deliver response-contingent ethanol (15% EtOH, v/v). Upon a reinforced response, a stimulus light is illuminated during the 4-sec dipper cup access. Operation of the stimuli and behavioral responses are controlled and recorded by personal computer for offline analysis. At the end of each session, all stimuli are turned off and levers are retracted.
Rats are trained to press a lever for EtOH reinforcement. Initially, responses on either lever are considered correct responses and are rewarded with reinforcement. […]

Male Fischer F-344 rats = assay: Stress-induced hyperthermia (in rat); conditions: for stress-induced hyperthermia (T2−T1): in °C
Male NIH-Swiss mice = assay: Mouse forced swim test; conditions: for immobility in mouse forced swim test, Mean: 60 min
Text: This test evaluates the effect of test compound on mice mobility as a measure of antidepressant effect. The less immobility compared to vehicle, the more pronounced the antidepressant-like effect.
Male, NIH-Swiss mice (25-30 g) (Harlan Sprague-Dawley, Indianapolis, Ind., USA) are housed in a vivarium for at least one week prior to use with water and rodent chow freely available during this acclimation period. Animals are removed from the vivarium to the testing area in their home cages and allowed to adapt to the new environment for at least one hour before testing.
Mice are placed in clear plastic cylinders (diameter: 10 cm; height: 25 cm) filled with 6 cm of water (22-25° C.) for six minutes. The duration of immobility during the last four minutes of the six minutes test period is scored. A mouse is recorded as immobile when floating motionless or making only those movements necessary to keep its head above water.
The test compound is administered p.o. 1 hour prior to testing at 1.0 mg/kg, 3.0 mg/kg and 10.0 mg/kg, n of 8 per group in a vehicle of 5 ml of sterile water and 30 ml of diluted (10×) lactic acid. Imipramine is evaluated as a positive control, 15 mg/kg: p, 30 min. prior to testing n of 4.
A second study is carried out evaluating 1 and 3 mg/kg doses of the compound of Example 1A alone and in combination with 5 mg/kg of imipramine. Imipramine alone is evaluated at 5 and 15 mg/kg doses and a vehicle control is included in the study. For the combination studies, the compound of Example 1A is administered p.o. 30 minutes prior to administration of imipramine i.p. and the test initiated 30 minutes following imipramine administration. An n of 8 per group is evaluated for all groups. For the evaluations of the compound of Example 1A alone, testing is initiated 60 minutes following administration and testing of imipramine only treated animals is initiated 30 minutes following administration.

[3] = Study 1, 1, 3 and 10 mg/kg p.o.

T2 sequence (P33535 whole entry): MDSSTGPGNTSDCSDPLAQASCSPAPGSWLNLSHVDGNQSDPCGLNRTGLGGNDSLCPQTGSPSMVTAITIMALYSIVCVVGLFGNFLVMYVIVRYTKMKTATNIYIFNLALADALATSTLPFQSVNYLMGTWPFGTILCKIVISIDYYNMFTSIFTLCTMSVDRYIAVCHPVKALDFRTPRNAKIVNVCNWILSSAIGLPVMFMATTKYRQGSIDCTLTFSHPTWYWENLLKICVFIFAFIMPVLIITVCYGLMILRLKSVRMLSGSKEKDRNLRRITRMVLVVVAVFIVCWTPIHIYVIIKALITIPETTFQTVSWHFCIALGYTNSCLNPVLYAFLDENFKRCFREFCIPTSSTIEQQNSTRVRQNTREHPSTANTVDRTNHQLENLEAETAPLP
T1 sequence (P34975 whole entry): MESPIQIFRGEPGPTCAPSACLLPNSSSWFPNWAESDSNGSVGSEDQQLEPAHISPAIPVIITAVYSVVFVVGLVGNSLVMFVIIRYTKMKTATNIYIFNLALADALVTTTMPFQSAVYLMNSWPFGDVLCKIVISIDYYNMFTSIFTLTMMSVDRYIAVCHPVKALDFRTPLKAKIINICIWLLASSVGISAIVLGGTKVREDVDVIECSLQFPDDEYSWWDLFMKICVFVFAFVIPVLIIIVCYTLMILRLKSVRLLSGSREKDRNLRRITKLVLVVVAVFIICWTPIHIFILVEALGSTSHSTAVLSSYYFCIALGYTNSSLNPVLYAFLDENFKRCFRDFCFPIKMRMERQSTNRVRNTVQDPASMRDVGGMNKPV

Cc1cc(C)cc([C@@H]2CCCN2Cc2ccc(Oc3ccc(C(N)=O)cc3F)cc2)c1 (single isomer, unassigned) [Example 1A]
ED50 [1]: 0.45 mg/kg | ED50 (mu receptors (striatum); oral): > 30 mg/kg | mu receptor occupancy (mu receptors (striatum); oral doses up to 30 mg/kg): no significant occupancy | concentration at 5.5 h ([2]; 0.1 mg/kg, oral dose .1): 1.17 ng/g | concentration at 5.5 h ([2]; 0.3 mg/kg, oral dose .3): 2.27 ng/g | concentration at 5.5 h ([2]; 1 mg/kg, oral dose 1): 4.63 ng/g | concentration at 5.5 h ([2]; 3 mg/kg, oral dose 3): 15.4 ng/g | concentration at 5.5 h ([2]; 10 mg/kg, oral dose 10): 65.2 ng/g | concentration at 5.5 h ([2]; 30 mg/kg, oral dose 30): 106 ng/g | breakpoint (P rats): reduced | number of active lever responses (P rats): reduced | quantity of ethanol consumed (P rats): reduced | stress-induced hyperthermia (T2−T1) (Male Fischer F-344 rats; Study 1, 1 mg/kg po, 60 min pretreatment, body temperature in degrees C.): 0.84±0.07 | stress-induced hyperthermia (T2−T1) (Male Fischer F-344 rats; Study 1, 3 mg/kg po, 60 min pretreatment): 0.80±0.10 | stress-induced hyperthermia (T2−T1) (Male Fischer F-344 rats; Study 1, 10 mg/kg po, 60 min pretreatment): 0.75±0.11 | baseline core body temperature (Male Fischer F-344 rats; [3]): not affected | reduction in stress-induced hyperthermia (T2−T1), in words (Male Fischer F-344 rats; [3]): dose-dependent, but non-significant, reduction | stress-induced hyperthermia (T2−T1) (Male Fischer F-344 rats; Study 2, 10 mg/kg Example 1A alone, po): 0.74±0.04 | baseline core body temperature (Male Fischer F-344 rats; Study 2, 1, 3 and 10 mg/kg p.o. together with 1 mg/kg chlordiazepoxide): not affected | reduction in stress-induced hyperthermia, in words (Male Fischer F-344 rats; Study 2, together with 1 mg/kg chlordiazepoxide, significant reduction p<0.05): increases the efficacy of a sub-threshold dose of chlordiazepoxide | immobility in mouse forced swim test, Mean (Male NIH-Swiss mice; Example 1A 1 mg/kg p.o.): 151.53 s | immobility in mouse forced swim test, Mean (Male NIH-Swiss mice; Example 1A 3 mg/kg p.o.): 172.02 s | antidepressant-like activity (immobility), in words (Male NIH-Swiss mice; first study, 10.0 mg/kg p.o. 1 hour prior to testing, p<0.05 versus vehicle, Dunnett's test): demonstrates antidepressant-like activity
